Test results from paper PMC12136037, “Type II kinase inhibitors that target Parkinson’s disease–associated LRRK2” (Science Advances, 2025).

Tests used:
Experiment in all cases: 33PanQinase kinome-wide selectivity profile (Reaction Biology)
Assay type in all cases: biochemical
350 wild-type kinases [1] = target: T1, 350 wild-type kinases (Homo sapiens, UniProt O60285); conditions: kinase ARK5, ATP 3 µM, singlicate
T1 construct: purchased Reaction Biology (assay service)
Description: (§1) Compound RN341 was tested at two concentrations of 1 and 10 μM against a panel of 350 wild-type kinases in the ^33PanQinase assay. The assay was performed by Reaction Biology (www.reactionbiology.com/services/kinase-assays/kinase-panel-screening/).

350 wild-type kinases [2] = target: T2, 350 wild-type kinases (Homo sapiens, UniProt O60566); conditions: kinase BUB1B, ATP 0,3 µM, singlicate
T2 construct: purchased Reaction Biology (assay service)
Description: as §1

350 wild-type kinases [3] = target: T3, 350 wild-type kinases (Homo sapiens, UniProt P19784); conditions: kinase CK2alpha2, ATP 0,1 µM, singlicate
T3 construct: purchased Reaction Biology (assay service)
T3 sequence (P19784 whole entry): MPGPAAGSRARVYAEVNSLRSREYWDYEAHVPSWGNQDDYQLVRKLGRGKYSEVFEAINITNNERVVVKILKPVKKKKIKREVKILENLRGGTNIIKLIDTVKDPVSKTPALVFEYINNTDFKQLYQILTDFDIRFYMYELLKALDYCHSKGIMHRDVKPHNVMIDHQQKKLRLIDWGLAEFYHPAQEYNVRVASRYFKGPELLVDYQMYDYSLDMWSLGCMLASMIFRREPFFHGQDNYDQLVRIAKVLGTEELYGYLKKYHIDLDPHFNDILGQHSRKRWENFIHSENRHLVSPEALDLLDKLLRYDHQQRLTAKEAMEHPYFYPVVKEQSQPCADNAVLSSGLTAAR
Description: as §1

350 wild-type kinases [4] = target: T4, 350 wild-type kinases (Homo sapiens, UniProt P21127); conditions: kinase CDK11B/CycK, ATP 0,1 µM, singlicate
T4 construct: purchased Reaction Biology (assay service)
T4 sequence (P21127 whole entry): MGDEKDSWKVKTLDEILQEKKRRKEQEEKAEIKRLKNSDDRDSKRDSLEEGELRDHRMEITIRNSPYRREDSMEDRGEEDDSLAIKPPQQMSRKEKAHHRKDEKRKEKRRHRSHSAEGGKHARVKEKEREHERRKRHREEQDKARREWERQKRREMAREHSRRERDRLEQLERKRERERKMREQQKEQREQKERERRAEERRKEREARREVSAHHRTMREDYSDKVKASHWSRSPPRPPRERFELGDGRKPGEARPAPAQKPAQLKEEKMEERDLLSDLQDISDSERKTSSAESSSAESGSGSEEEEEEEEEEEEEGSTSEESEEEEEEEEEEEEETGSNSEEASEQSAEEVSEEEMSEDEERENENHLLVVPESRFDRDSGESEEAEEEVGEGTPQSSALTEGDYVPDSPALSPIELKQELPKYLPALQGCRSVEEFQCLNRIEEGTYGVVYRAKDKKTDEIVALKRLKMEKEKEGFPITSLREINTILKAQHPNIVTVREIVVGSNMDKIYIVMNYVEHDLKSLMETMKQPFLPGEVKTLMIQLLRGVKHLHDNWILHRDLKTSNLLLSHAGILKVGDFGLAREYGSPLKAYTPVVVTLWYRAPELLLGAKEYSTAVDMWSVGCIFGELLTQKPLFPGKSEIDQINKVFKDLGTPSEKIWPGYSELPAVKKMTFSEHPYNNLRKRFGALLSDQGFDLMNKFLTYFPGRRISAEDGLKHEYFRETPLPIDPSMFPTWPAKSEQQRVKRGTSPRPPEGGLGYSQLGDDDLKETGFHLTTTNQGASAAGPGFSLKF
Description: as §1

350 wild-type kinases [5] = target: T5, 350 wild-type kinases (Homo sapiens, UniProt P24941); conditions: singlicate; for Residual activity (% of control), CDK2/CycA2: kinase CDK2/CycA2, ATP 0,3 µM; for Residual activity (% of control), CDK2/CycD1: kinase CDK2/CycD1, ATP 3 µM; for Residual activity (% of control), CDK2/CycE1: kinase CDK2/CycE1, ATP 1 µM
T5 construct: purchased Reaction Biology (assay service)
Description: as §1

350 wild-type kinases [6] = target: T6, 350 wild-type kinases (Homo sapiens, UniProt P27037); conditions: kinase ACVR2A, ATP 3 µM, singlicate
T6 construct: purchased Reaction Biology (assay service)
T6 sequence (P27037 20-513): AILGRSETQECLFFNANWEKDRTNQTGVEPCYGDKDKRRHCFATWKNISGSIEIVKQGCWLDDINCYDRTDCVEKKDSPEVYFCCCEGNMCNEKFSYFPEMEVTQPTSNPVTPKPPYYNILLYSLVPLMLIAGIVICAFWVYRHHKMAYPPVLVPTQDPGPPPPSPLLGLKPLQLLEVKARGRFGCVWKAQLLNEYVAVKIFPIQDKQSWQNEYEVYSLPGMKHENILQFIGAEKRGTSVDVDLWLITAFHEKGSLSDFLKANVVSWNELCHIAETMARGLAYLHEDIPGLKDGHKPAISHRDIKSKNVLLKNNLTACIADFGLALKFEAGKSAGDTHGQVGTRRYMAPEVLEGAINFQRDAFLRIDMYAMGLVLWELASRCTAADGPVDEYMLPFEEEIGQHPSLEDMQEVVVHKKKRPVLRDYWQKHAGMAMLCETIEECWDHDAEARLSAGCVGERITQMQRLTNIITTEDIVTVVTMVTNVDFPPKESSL
Description: as §1

350 wild-type kinases [7] = target: T7, 350 wild-type kinases (Homo sapiens, UniProt P33981); conditions: 1 μM, TTK; read-out: TTK activity, % of control
T7 construct: purchased Reaction Biology (assay service)
Description: as §1

350 wild-type kinases [8] = target: T8, 350 wild-type kinases (Homo sapiens, UniProt P36896); conditions: kinase ACVR1B, ATP 3 µM, singlicate
T8 construct: purchased Reaction Biology (assay service)
Description: as §1

350 wild-type kinases [9] = target: T9, 350 wild-type kinases (Homo sapiens, UniProt P49674); conditions: kinase CK1epsilon, ATP 0,3 µM, singlicate
T9 construct: purchased Reaction Biology (assay service)
Description: as §1

350 wild-type kinases [10] = target: T10, 350 wild-type kinases (Homo sapiens, UniProt P50750); conditions: singlicate; for Residual activity (% of control), CDK9/CycK: kinase CDK9/CycK, ATP 1 µM; for Residual activity (% of control), CDK9/CycT1: kinase CDK9/CycT1, ATP 0,3 µM
T10 construct: purchased Reaction Biology (assay service)
T10 sequence (P50750 whole entry): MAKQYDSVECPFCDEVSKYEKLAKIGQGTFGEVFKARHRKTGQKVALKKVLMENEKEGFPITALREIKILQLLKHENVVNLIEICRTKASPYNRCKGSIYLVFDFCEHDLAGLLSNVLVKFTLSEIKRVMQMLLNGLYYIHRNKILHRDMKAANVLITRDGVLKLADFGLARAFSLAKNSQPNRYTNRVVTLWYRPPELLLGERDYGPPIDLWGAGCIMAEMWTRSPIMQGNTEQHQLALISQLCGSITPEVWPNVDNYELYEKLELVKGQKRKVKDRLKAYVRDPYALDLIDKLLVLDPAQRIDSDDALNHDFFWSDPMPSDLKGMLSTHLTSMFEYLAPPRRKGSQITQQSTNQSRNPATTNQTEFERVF
Description: as §1

350 wild-type kinases [11] = target: T11, 350 wild-type kinases (Homo sapiens, UniProt P51451); conditions: kinase BLK, ATP 0,3 µM, singlicate
T11 construct: purchased Reaction Biology (assay service)
T11 sequence (P51451 whole entry): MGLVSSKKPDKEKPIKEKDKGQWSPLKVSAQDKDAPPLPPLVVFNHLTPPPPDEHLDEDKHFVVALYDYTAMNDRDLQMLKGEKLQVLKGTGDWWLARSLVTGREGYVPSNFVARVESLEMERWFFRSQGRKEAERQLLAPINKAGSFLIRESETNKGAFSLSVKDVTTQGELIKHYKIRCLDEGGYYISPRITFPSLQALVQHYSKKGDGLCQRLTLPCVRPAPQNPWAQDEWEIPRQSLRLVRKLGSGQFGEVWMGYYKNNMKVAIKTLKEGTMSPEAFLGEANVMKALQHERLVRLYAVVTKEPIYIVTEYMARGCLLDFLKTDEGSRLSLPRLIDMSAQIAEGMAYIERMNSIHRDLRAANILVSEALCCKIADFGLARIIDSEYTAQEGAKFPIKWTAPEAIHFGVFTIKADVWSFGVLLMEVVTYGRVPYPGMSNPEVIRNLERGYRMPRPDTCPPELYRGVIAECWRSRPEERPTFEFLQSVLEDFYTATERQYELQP
Description: as §1

350 wild-type kinases [12] = target: T12, 350 wild-type kinases (Homo sapiens, UniProt P68400); conditions: kinase CK2alpha1, ATP 0,1 µM, singlicate
T12 construct: purchased Reaction Biology (assay service)
T12 sequence (P68400 whole entry): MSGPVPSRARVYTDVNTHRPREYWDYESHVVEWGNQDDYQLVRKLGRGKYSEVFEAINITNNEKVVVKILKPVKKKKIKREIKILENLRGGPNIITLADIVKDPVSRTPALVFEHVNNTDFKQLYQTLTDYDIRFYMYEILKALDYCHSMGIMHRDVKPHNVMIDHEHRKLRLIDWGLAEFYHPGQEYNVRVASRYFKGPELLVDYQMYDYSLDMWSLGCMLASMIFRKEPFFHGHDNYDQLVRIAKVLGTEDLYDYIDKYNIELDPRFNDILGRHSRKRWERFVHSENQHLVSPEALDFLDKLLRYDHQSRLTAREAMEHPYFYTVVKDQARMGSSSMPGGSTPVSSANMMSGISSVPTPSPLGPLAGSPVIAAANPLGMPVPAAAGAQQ
Description: as §1

350 wild-type kinases [13] = target: T13, 350 wild-type kinases (Homo sapiens, UniProt P78527); conditions: kinase DNAPK, ATP 1 µM, singlicate
T13 construct: purchased Reaction Biology (assay service)
Description: as §1

350 wild-type kinases [14] = target: T14, 350 wild-type kinases (Homo sapiens, UniProt Q13627); conditions: kinase DYRK1A, ATP 1 µM, singlicate
T14 construct: purchased Reaction Biology (assay service)
Description: as §1

350 wild-type kinases [15] = target: T15, 350 wild-type kinases (Homo sapiens, UniProt Q13882); conditions: kinase BRK, ATP 3 µM, singlicate
T15 construct: purchased Reaction Biology (assay service)
Description: as §1

350 wild-type kinases [16] = target: T16, 350 wild-type kinases (Homo sapiens, UniProt Q8IZL9); conditions: singlicate; for Residual activity (% of control), CDK20/CycH: kinase CDK20/CycH, ATP 0,1 µM; for Residual activity (% of control), CDK20/CycT1: kinase CDK20/CycT1, ATP 1 µM
T16 construct: purchased Reaction Biology (assay service)
T16 sequence (Q8IZL9 whole entry): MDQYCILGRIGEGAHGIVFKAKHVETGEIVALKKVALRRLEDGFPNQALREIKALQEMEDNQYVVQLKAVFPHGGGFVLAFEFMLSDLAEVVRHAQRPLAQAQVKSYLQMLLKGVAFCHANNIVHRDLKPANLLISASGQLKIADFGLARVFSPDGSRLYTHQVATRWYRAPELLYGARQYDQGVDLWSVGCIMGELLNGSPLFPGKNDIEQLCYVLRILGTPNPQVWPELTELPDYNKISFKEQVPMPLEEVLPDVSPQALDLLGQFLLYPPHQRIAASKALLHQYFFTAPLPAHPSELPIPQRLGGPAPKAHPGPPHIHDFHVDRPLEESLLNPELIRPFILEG
Description: as §1

350 wild-type kinases [17] = target: T17, 350 wild-type kinases (Homo sapiens, UniProt Q8N568); conditions: kinase DCAMKL2, ATP 1 µM, singlicate
T17 construct: purchased Reaction Biology (assay service)
T17 sequence (Q8N568 whole entry): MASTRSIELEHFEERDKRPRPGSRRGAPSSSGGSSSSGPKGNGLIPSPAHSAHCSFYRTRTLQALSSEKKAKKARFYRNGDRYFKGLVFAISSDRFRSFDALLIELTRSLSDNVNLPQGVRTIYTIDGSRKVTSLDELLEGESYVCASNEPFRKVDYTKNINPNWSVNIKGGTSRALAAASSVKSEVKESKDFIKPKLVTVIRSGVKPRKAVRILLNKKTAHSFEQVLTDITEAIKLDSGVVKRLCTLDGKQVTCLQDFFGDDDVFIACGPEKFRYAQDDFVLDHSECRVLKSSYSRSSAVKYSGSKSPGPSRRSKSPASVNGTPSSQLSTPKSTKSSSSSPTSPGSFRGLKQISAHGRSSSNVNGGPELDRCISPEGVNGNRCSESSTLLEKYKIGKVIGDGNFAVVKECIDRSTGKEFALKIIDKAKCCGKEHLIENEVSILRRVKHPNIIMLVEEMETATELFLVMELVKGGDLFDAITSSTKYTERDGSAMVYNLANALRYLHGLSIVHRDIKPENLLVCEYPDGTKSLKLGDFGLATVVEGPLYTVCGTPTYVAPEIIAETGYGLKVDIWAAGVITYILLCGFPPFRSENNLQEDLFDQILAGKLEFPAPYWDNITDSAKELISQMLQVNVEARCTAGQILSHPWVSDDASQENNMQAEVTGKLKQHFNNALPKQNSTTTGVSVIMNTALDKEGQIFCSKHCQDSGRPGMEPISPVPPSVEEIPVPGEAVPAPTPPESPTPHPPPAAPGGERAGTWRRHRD
Description: as §1

350 wild-type kinases [18] = target: T18, 350 wild-type kinases (Homo sapiens, UniProt Q96GD4); conditions: kinase AuroraB, ATP 10 µM, singlicate
T18 construct: purchased Reaction Biology (assay service)
Description: as §1

350 wild-type kinases [19] = target: T19, 350 wild-type kinases (Homo sapiens, UniProt Q96RR4); conditions: kinase CAMKK2, ATP 3 µM, singlicate
T19 construct: purchased Reaction Biology (assay service)
Description: as §1

350 wild-type kinases [20] = target: T20, 350 wild-type kinases (Homo sapiens, UniProt Q99683); conditions: kinase ASK1, ATP 3 µM, singlicate
T20 construct: purchased Reaction Biology (assay service)
Description: as §1

350 wild-type kinases [21] = target: T21, 350 wild-type kinases (Homo sapiens, UniProt Q9HAZ1); conditions: kinase CLK4, ATP 0,1 µM, singlicate
T21 construct: purchased Reaction Biology (assay service)
Description: as §1

350 wild-type kinases [22] = target: T22, 350 wild-type kinases (Homo sapiens, UniProt Q9UM73); conditions: kinase ALK, ATP 0,3 µM, singlicate
T22 construct: purchased Reaction Biology (assay service)
Description: as §1

350 wild-type kinases [23] = target: T23, 350 wild-type kinases (Homo sapiens, UniProt Q9UQB9); conditions: kinase AuroraC, ATP 3 µM, singlicate
T23 construct: purchased Reaction Biology (assay service)
T23 sequence (Q9UQB9 whole entry): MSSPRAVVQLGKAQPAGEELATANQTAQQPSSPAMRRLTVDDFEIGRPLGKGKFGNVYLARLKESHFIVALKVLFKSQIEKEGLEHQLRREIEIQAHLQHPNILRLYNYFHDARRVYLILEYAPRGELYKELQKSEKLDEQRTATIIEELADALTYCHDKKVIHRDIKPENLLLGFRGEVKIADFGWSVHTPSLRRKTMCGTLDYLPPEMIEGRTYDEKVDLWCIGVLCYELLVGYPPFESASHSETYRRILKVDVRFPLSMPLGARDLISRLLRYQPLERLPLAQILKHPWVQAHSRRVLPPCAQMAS
Description: as §1

T1 sequence (O60285 whole entry): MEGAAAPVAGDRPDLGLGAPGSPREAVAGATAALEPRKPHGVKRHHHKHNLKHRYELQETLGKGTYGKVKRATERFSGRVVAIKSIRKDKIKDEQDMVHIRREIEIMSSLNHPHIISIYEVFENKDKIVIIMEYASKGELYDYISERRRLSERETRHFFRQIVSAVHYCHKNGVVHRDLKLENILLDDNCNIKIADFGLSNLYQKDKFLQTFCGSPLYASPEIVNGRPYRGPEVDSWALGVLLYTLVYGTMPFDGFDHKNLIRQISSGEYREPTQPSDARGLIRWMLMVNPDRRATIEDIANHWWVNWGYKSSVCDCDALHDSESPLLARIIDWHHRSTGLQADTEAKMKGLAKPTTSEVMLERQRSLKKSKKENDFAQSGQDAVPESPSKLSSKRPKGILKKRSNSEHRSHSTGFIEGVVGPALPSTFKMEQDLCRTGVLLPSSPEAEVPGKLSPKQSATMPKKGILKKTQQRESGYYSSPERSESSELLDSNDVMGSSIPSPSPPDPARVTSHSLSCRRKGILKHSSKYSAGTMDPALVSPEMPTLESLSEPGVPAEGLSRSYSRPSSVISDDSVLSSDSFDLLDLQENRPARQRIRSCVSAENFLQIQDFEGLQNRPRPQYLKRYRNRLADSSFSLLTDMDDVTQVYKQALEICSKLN

CCSc1nc(NC)c2c(-c3cccc(NC(=O)Nc4cc(C(C)(C)C)nn4-c4ccc(C)cc4)c3)c[nH]c2n1 [Compound 32]
Residual activity (% of control), ARK5 (350 wild-type kinases [1]; Assay Conc. 1.0E-05 M): 99 % of control
Residual activity (% of control), ARK5 (350 wild-type kinases [1]; Assay Conc. 1.0E-06 M): 105 % of control
Residual activity (% of control), BUB1B (350 wild-type kinases [2]; Assay Conc. 1.0E-05 M): 85 % of control
Residual activity (% of control), BUB1B (350 wild-type kinases [2]; Assay Conc. 1.0E-06 M): 119 % of control
Residual activity (% of control), CK2alpha2 (350 wild-type kinases [3]; Assay Conc. 1.0E-05 M): 92 % of control
Residual activity (% of control), CK2alpha2 (350 wild-type kinases [3]; Assay Conc. 1.0E-06 M): 101 % of control
Residual activity (% of control), CDK11B/CycK (350 wild-type kinases [4]; Assay Conc. 1.0E-05 M): 99 % of control
Residual activity (% of control), CDK11B/CycK (350 wild-type kinases [4]; Assay Conc. 1.0E-06 M): 96 % of control
Residual activity (% of control), CDK2/CycA2 (350 wild-type kinases [5]; Assay Conc. 1.0E-05 M): 46 % of control
Residual activity (% of control), CDK2/CycA2 (350 wild-type kinases [5]; Assay Conc. 1.0E-06 M): 105 % of control
Residual activity (% of control), CDK2/CycD1 (350 wild-type kinases [5]; Assay Conc. 1.0E-05 M): 78 % of control
Residual activity (% of control), CDK2/CycD1 (350 wild-type kinases [5]; Assay Conc. 1.0E-06 M): 110 % of control
Residual activity (% of control), CDK2/CycE1 (350 wild-type kinases [5]; Assay Conc. 1.0E-05 M): 58 % of control
Residual activity (% of control), CDK2/CycE1 (350 wild-type kinases [5]; Assay Conc. 1.0E-06 M): 103 % of control
Residual activity (% of control), ACVR2A (350 wild-type kinases [6]; Assay Conc. 1.0E-05 M): 92 % of control
Residual activity (% of control), ACVR2A (350 wild-type kinases [6]; Assay Conc. 1.0E-06 M): 102 % of control
remaining activity at 1 µM (350 wild-type kinases [7]): < 50%
Residual activity (% of control), ACVR1B (350 wild-type kinases [8]; Assay Conc. 1.0E-05 M): 76 % of control
Residual activity (% of control), ACVR1B (350 wild-type kinases [8]; Assay Conc. 1.0E-06 M): 93 % of control
Residual activity (% of control), CK1epsilon (350 wild-type kinases [9]; Assay Conc. 1.0E-05 M): 74 % of control
Residual activity (% of control), CK1epsilon (350 wild-type kinases [9]; Assay Conc. 1.0E-06 M): 97 % of control
Residual activity (% of control), CDK9/CycK (350 wild-type kinases [10]; Assay Conc. 1.0E-05 M): 86 % of control
Residual activity (% of control), CDK9/CycK (350 wild-type kinases [10]; Assay Conc. 1.0E-06 M): 111 % of control
Residual activity (% of control), CDK9/CycT1 (350 wild-type kinases [10]; Assay Conc. 1.0E-05 M): 85 % of control
Residual activity (% of control), CDK9/CycT1 (350 wild-type kinases [10]; Assay Conc. 1.0E-06 M): 106 % of control
Residual activity (% of control), BLK (350 wild-type kinases [11]; Assay Conc. 1.0E-05 M): 55 % of control
Residual activity (% of control), BLK (350 wild-type kinases [11]; Assay Conc. 1.0E-06 M): 78 % of control
Residual activity (% of control), CK2alpha1 (350 wild-type kinases [12]; Assay Conc. 1.0E-05 M): 82 % of control
Residual activity (% of control), CK2alpha1 (350 wild-type kinases [12]; Assay Conc. 1.0E-06 M): 102 % of control
Residual activity (% of control), DNAPK (350 wild-type kinases [13]; Assay Conc. 1.0E-05 M): 82 % of control
Residual activity (% of control), DNAPK (350 wild-type kinases [13]; Assay Conc. 1.0E-06 M): 99 % of control
Residual activity (% of control), DYRK1A (350 wild-type kinases [14]; Assay Conc. 1.0E-05 M): 48 % of control
Residual activity (% of control), DYRK1A (350 wild-type kinases [14]; Assay Conc. 1.0E-06 M): 75 % of control
Residual activity (% of control), BRK (350 wild-type kinases [15]; Assay Conc. 1.0E-05 M): 79 % of control
Residual activity (% of control), BRK (350 wild-type kinases [15]; Assay Conc. 1.0E-06 M): 109 % of control
Residual activity (% of control), CDK20/CycH (350 wild-type kinases [16]; Assay Conc. 1.0E-05 M): 87 % of control
Residual activity (% of control), CDK20/CycH (350 wild-type kinases [16]; Assay Conc. 1.0E-06 M): 103 % of control
Residual activity (% of control), CDK20/CycT1 (350 wild-type kinases [16]; Assay Conc. 1.0E-05 M): 84 % of control
Residual activity (% of control), CDK20/CycT1 (350 wild-type kinases [16]; Assay Conc. 1.0E-06 M): 99 % of control
Residual activity (% of control), DCAMKL2 (350 wild-type kinases [17]; Assay Conc. 1.0E-05 M): 91 % of control
Residual activity (% of control), DCAMKL2 (350 wild-type kinases [17]; Assay Conc. 1.0E-06 M): 103 % of control
Residual activity (% of control), AuroraB (350 wild-type kinases [18]; Assay Conc. 1.0E-05 M): 74 % of control
Residual activity (% of control), AuroraB (350 wild-type kinases [18]; Assay Conc. 1.0E-06 M): 107 % of control
Residual activity (% of control), CAMKK2 (350 wild-type kinases [19]; Assay Conc. 1.0E-05 M): 85 % of control
Residual activity (% of control), CAMKK2 (350 wild-type kinases [19]; Assay Conc. 1.0E-06 M): 119 % of control
Residual activity (% of control), ASK1 (350 wild-type kinases [20]; Assay Conc. 1.0E-05 M): 71 % of control
Residual activity (% of control), ASK1 (350 wild-type kinases [20]; Assay Conc. 1.0E-06 M): 103 % of control
Residual activity (% of control), CLK4 (350 wild-type kinases [21]; Assay Conc. 1.0E-05 M): 43 % of control
Residual activity (% of control), CLK4 (350 wild-type kinases [21]; Assay Conc. 1.0E-06 M): 80 % of control
Residual activity (% of control), ALK (350 wild-type kinases [22]; Assay Conc. 1.0E-05 M): 23 % of control
Residual activity (% of control), ALK (350 wild-type kinases [22]; Assay Conc. 1.0E-06 M): 64 % of control
Residual activity (% of control), AuroraC (350 wild-type kinases [23]; Assay Conc. 1.0E-05 M): 77 % of control
Residual activity (% of control), AuroraC (350 wild-type kinases [23]; Assay Conc. 1.0E-06 M): 105 % of control
